The assay has as its system P388 leukemia ip, CD2F1 mice, survival T/C. Nature of the assay: NCI In Vivo Anticancer Drug Screen. Data for tumor model P388 Leukemia (intraperitoneal) in CD2F1 (CDF1) mice. The settings on record: endpoint: median survival time, higher = longer survival. Summed up: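 Mice carrying the transplanted tumor received test compound or vehicle. Survival was recorded in each group, and the value is the treated-group measurement divided by that of the vehicle-treated control group.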

Where [1] appears, read: dose: 50.0 mg/kg/injection, schedule: Q01DX009 (ip), vehicle: saline.
The mark [2] stands for this setting: dose: 100.0 mg/kg/injection, schedule: Q01DX009 (ip), vehicle: saline.
Setting [3] is: dose: 200.0 mg/kg/injection, schedule: Q01DX009 (ip), vehicle: saline.
Setting [4] is: dose: 6.25 mg/kg/injection, schedule: Q01DX009 (ip), vehicle: saline with Tween-80.
Setting [5] is: dose: 25.0 mg/kg/injection, schedule: Q01DX009 (ip), vehicle: saline with Tween-80.
Setting [6] is: dose: 12.5 mg/kg/injection, schedule: Q01DX009 (ip), vehicle: saline with Tween-80.
[7] abbreviates: dose: 100.0 mg/kg/injection, schedule: Q04DX002 (ip), vehicle: saline with Tween-80.
Setting [8] is: dose: 200.0 mg/kg/injection, schedule: Q04DX002 (ip), vehicle: saline with Tween-80.
[9] abbreviates: dose: 60.0 mg/kg/injection, schedule: Q01DX005 (ip), vehicle: Klucel (hydroxypropylcellulose) (HPC).
[10] abbreviates: dose: 120.0 mg/kg/injection, schedule: Q01DX005 (ip), vehicle: Klucel (hydroxypropylcellulose) (HPC).
Setting [11] is: dose: 60.0 mg/kg/injection, schedule: Q01DX005 (ip), vehicle: saline with Tween-80.
The mark [12] stands for this setting: dose: 120.0 mg/kg/injection, schedule: Q01DX005 (ip), vehicle: saline with Tween-80.
The mark [13] stands for this setting: dose: 50.0 mg/kg/injection, schedule: Q01DX009 (ip), vehicle: saline with Tween-80.

Values joined by “and” are separate entries in the source; they are usually repeats but may differ in a detail not shown here. Identical values can stand only once. Inconclusive results and toxic doses are left out.

In the case of `C[n+]1c(/C=C\c2ccc(Cl)cc2)ccc2ccccc21`, the T/C reads like this: (dose: 1.56 mg/kg/injection, schedule: Q01DX009 (ip), vehicle: saline with Tween-80) 100 % of control; (dose: 3.13 mg/kg/injection, schedule: Q01DX009 (ip), vehicle: saline with Tween-80) 113 % of control.

Take `CC(C)(SSC(C)(C)C1NC(=O)NC1=O)C1NC(=O)NC1=O` (centres undefined): the T/C is 102 % of control (dose: 6.25 mg/kg/injection, schedule: Q01DX005 (ip), vehicle: Klucel (hydroxypropylcellulose) (HPC)); 99 % of control (dose: 12.5 mg/kg/injection, schedule: Q01DX005 (ip), vehicle: Klucel (hydroxypropylcellulose) (HPC)); 98 % of control (dose: 25.0 mg/kg/injection, schedule: Q01DX005 (ip), vehicle: Klucel (hydroxypropylcellulose) (HPC)).

`CCC1CCCC[N+]1(C)[B-](F)(F)F` (centres undefined): the T/C was 105 % of control (dose: 50.0 mg/kg/injection, schedule: Q01DX005 (ip), vehicle: saline) and 107 % of control (dose: 100.0 mg/kg/injection, schedule: Q01DX005 (ip), vehicle: saline).

For `O=c1oc(-c2ccccc2I)ns1`, the T/C runs as follows: (dose: 100.0 mg/kg/injection, schedule: Q01DX009 (ip), vehicle: Klucel (hydroxypropylcellulose) (HPC)) 113 % of control; (dose: 200.0 mg/kg/injection, schedule: Q01DX009 (ip), vehicle: Klucel (hydroxypropylcellulose) (HPC)) 114 % of control; (dose: 400.0 mg/kg/injection, schedule: Q01DX009 (ip), vehicle: Klucel (hydroxypropylcellulose) (HPC)) 96 % of control.

With `CNc1ccccc1CO`, the T/C runs as follows: (dose: 100.0 mg/kg/injection, schedule: Q04DX003 (ip), vehicle: other) 95 % of control; (dose: 200.0 mg/kg/injection, schedule: Q04DX003 (ip), vehicle: other) 95 % of control; (dose: 400.0 mg/kg/injection, schedule: Q04DX003 (ip), vehicle: other) 90 % of control.

In the case of `c1nc(SC2CCCC2)c2[nH]cnc2n1`, the T/C (dose: 100.0 mg/kg/injection, schedule: Q04DX003 (ip), vehicle: saline with Tween-80) was 118 % of control; the T/C (dose: 200.0 mg/kg/injection, schedule: Q04DX003 (ip), vehicle: saline with Tween-80) is 104 % of control; the T/C (dose: 400.0 mg/kg/injection, schedule: Q04DX003 (ip), vehicle: saline with Tween-80) was 118 % of control.

Take `CNC(=O)C1CCCN1C(=O)C(Cl)Cl` (centres undefined): the T/C under setting [1] was 96 % of control; the T/C under setting [2] was 93 % of control and 96 % of control; the T/C under setting [3] was 86 % of control and 92 % of control.

Take `Cc1cc2nc3n(c2cc1C)C(=O)c1cc2ccccc2cc1-3`: the T/C reads like this: (dose: 3.12 mg/kg/injection, schedule: Q01DX009 (ip), vehicle: saline with Tween-80) 97 % of control; under setting [4], 94 % of control; under setting [5], 88 % of control.

Turning to `O=C(CC(c1ccccc1)C(C(=O)O)c1ccccc1)c1ccccc1` (centres undefined), the T/C is, setting by setting: (dose: 25.0 mg/kg/injection, schedule: Q01DX001 (ip), vehicle: saline with Tween-80) 92 % of control; (dose: 50.0 mg/kg/injection, schedule: Q01DX001 (ip), vehicle: saline with Tween-80) 92 % of control; (dose: 100.0 mg/kg/injection, schedule: Q01DX001 (ip), vehicle: saline with Tween-80) 87 % of control; (dose: 200.0 mg/kg/injection, schedule: Q01DX001 (ip), vehicle: saline with Tween-80) 86 % of control.

On to `O=c1cc(CBr)c2ccccc2[nH]1`, for which the T/C is 95 % of control under setting [4], 95 % of control under setting [6] and 86 % of control under setting [5].

Regarding `C=Cc1ccccc1N/N=C(\Cl)C(=O)OCC`, the T/C reads like this: under setting [7], 108 % of control; under setting [8], 113 % of control.

As for `C[N+]1(C)CCN(Cc2ccc3c(c2)CCc2ccccc2N3)CC1`, the T/C (dose: 3.75 mg/kg/injection, schedule: Q01DX005 (ip), vehicle: saline) was 104 % of control and the T/C (dose: 7.5 mg/kg/injection, schedule: Q01DX005 (ip), vehicle: saline) is 96 % of control.

Regarding `Nc1[nH]c(=S)[nH]c(=O)c1NS(=O)(=O)c1cccc([N+](=O)[O-])c1`, the T/C runs as follows: (dose: 30.0 mg/kg/injection, schedule: Q01DX005 (ip), vehicle: Klucel (hydroxypropylcellulose) (HPC)) 103 % of control and 105 % of control; under setting [9], 100 % of control and 97 % of control; under setting [10], 98 % of control and 97 % of control; (dose: 240.0 mg/kg/injection, schedule: Q01DX005 (ip), vehicle: Klucel (hydroxypropylcellulose) (HPC)) 99 % of control and 106 % of control.

`COC(=O)C1=C2c3cc4c(cc3CCN2C2(O)c3c(ccc(OC)c3OC)C(=O)C12C(=O)OC)OCO4` (centres undefined): the T/C is 96 % of control (dose: 50.0 mg/kg/injection, schedule: Q04DX002 (ip), vehicle: saline with Tween-80); 103 % of control under setting [7]; 96 % of control under setting [8].

As for `Cc1cccc(NC(N)=S)n1`, the T/C is, setting by setting: (dose: 12.5 mg/kg/injection, schedule: Q01DX009 (ip), vehicle: other) 108 % of control; (dose: 25.0 mg/kg/injection, schedule: Q01DX009 (ip), vehicle: other) 98 % of control; (dose: 50.0 mg/kg/injection, schedule: Q01DX009 (ip), vehicle: other) 115 % of control; (dose: 100.0 mg/kg/injection, schedule: Q01DX009 (ip), vehicle: other) 119 % of control.

In the case of `CCCCN(CCCC)CCNc1ccc(C)c2sc3ccc(Cl)cc3c(=O)c12`, the T/C is 88 % of control (dose: 12.5 mg/kg/injection, schedule: Q01DX005 (ip), vehicle: saline with Tween-80); 88 % of control (dose: 25.0 mg/kg/injection, schedule: Q01DX005 (ip), vehicle: saline with Tween-80); 89 % of control (dose: 50.0 mg/kg/injection, schedule: Q01DX005 (ip), vehicle: saline with Tween-80).

As to `COC(=O)c1nc(N)nc(C(=O)OC)c1C(=O)c1ccc(Cl)cc1Cl`, the T/C reads like this: under setting [11], 95 % of control; under setting [12], 100 % of control.

On to `C/C=C(\C)C(N)=O`, for which the T/C is 90 % of control under setting [1], 100 % of control under setting [2] and 95 % of control under setting [3].

For `NC(=S)c1ccccc1[N+](=O)[O-]`, the T/C was 104 % of control (dose: 25.0 mg/kg/injection, schedule: Q01DX001 (ip), vehicle: saline); 101 % of control (dose: 25.0 mg/kg/injection, schedule: Q01DX001 (ip), vehicle: suspension in saline); 104 % of control (dose: 50.0 mg/kg/injection, schedule: Q01DX001 (ip), vehicle: saline); 100 % of control (dose: 50.0 mg/kg/injection, schedule: Q01DX001 (ip), vehicle: suspension in saline); 101 % of control and 104 % of control (dose: 100.0 mg/kg/injection, schedule: Q01DX001 (ip), vehicle: saline); 102 % of control (dose: 100.0 mg/kg/injection, schedule: Q01DX001 (ip), vehicle: suspension in saline). Besides, the T/C (dose: 200.0 mg/kg/injection, schedule: Q01DX001 (ip), vehicle: suspension in saline) is 101 % of control.

Consider `C[N+]1=C(/C=C/Nc2ccc3ccc4cccc5ccc2c3c45)C(C)(C)c2ccccc21`, for which the T/C runs as follows: under setting [4], 108 % of control; under setting [6], 100 % of control; under setting [5], 105 % of control; under setting [13], 89 % of control.

Consider `Fc1ccc2nc3ccccc3c(SCCCCCCSc3c4ccccc4nc4ccc(F)cc34)c2c1`, for which the T/C was 96 % of control under setting [9] and 90 % of control under setting [10].

For `CCCCCCCCCCCC(=O)OOC(C)(C)C`, the T/C by setting is: under setting [11], 100 % of control; under setting [12], 102 % of control; (dose: 240.0 mg/kg/injection, schedule: Q01DX005 (ip), vehicle: saline with Tween-80) 97 % of control.

For `CC(C)CC1N=C(NN=C(CCl)CCl)OP1(=O)NCCCCCCNP1(=O)OC(NN=C(CCl)CCl)=NC1CC(C)C` (centres undefined), the T/C under setting [9] is 106 % of control.

For the compound `NC(Cc1c[nH]c2ccc([N+](=O)[O-])cc12)C(=O)O` (centres undefined), the T/C reads like this: under setting [13], 92 % of control; (dose: 100.0 mg/kg/injection, schedule: Q01DX009 (ip), vehicle: saline with Tween-80) 91 % of control; (dose: 200.0 mg/kg/injection, schedule: Q01DX009 (ip), vehicle: saline with Tween-80) 94 % of control; (dose: 400.0 mg/kg/injection, schedule: Q01DX009 (ip), vehicle: saline with Tween-80) 91 % of control.

On to `O=C(O)c1ncn2c(=O)n(CCCl)nnc12`, for which the T/C under setting [9] was 118 % of control.

(Values after PubChem BioAssay AID330 (DTP/NCI, 2004).)
